Values after ≈ are worked out from the molar mass of the structure shown. Like-named read-outs stand apart in the source and are kept apart here.
Assays:
Staph. aureus W2827 = assay: MIC against human bacteria in vitro; format: cell-based; conditions: Staphylococcus aureus; Staph. aureus W2827; 5% chocolated horse blood agar, 18 hours; read-out: MIC
[1] = system: Corynebacterium xerosis 9755; assay: MIC against human bacteria in vitro; format: cell-based; conditions: Corynebacterium xerosis 9755; 5% chocolated horse blood agar, 18 hours; read-out: MIC
M. suipneumoniae MS 16 = assay: MIC against mycoplasma in vitro; format: cell-based; conditions: Mesomycoplasma hyopneumoniae, MS16, 144 h
[2] = system: Strep. suis (group D) SPS11; assay: MIC against veterinary bacteria in vitro; conditions: Streptococcus suis, 18 h
Description: (§1) The activity of the compounds of the Examples against various veterinarily important bacteria, was assayed in vitro using two-fold serial dilutions in Diagnostic Sensitivity Test Agar inoculated with 10^4 organisms.

[3] = system: Haemophilus influenzae Wy21; assay: MIC against human bacteria in vitro; format: cell-based; conditions: Haemophilus influenzae Wy21; 5% chocolated horse blood agar, 18 hours; read-out: MIC
M. dispar NCTC 10125 = assay: MIC against mycoplasma in vitro; format: cell-based; conditions: 144 h
Sarcina lutea 8340 = assay: MIC against human bacteria in vitro; format: cell-based; conditions: Micrococcus luteus; Sarcina lutea 8340; 5% chocolated horse blood agar, 18 hours; read-out: MIC
Strep. faecalis I = assay: MIC against human bacteria in vitro; format: cell-based; conditions: Enterococcus faecalis; Strep. faecalis I; 5% chocolated horse blood agar, 18 hours; read-out: MIC
K. aerogenes A = assay: MIC against human bacteria in vitro; format: cell-based; conditions: Klebsiella aerogenes; K. aerogenes A; 5% chocolated horse blood agar, 18 hours; read-out: MIC
Staph. aureus Oxford = assay: MIC against human bacteria in vitro; format: cell-based; conditions: Staphylococcus aureus; Staph. aureus Oxford; 5% chocolated horse blood agar, 18 hours; read-out: MIC
Bacillus subtilis 6633 = assay: MIC against human bacteria in vitro; format: cell-based; conditions: Bacillus subtilis 6633; 5% chocolated horse blood agar, 18 hours; read-out: MIC
Staph. aureus Russell = assay: MIC against human bacteria in vitro; format: cell-based; conditions: Staphylococcus aureus; Staph. aureus Russell; 5% chocolated horse blood agar, 18 hours; read-out: MIC
Strep. agalactiae SPA1 = assay: MIC against veterinary bacteria in vitro; conditions: Streptococcus agalactiae, SPA1, 18 h
Description: as §1

M. suipneumoniae JF 435 = assay: MIC against mycoplasma in vitro; format: cell-based; conditions: Mesomycoplasma hyopneumoniae, JF435, 144 h
S. dublin S7 = assay: MIC against veterinary bacteria in vitro; conditions: Salmonella enterica, S7, 18 h
Description: as §1

Past. multocida PA1 = assay: MIC against veterinary bacteria in vitro; conditions: Pasteurella multocida, PA1, 18 h
Description: as §1

[4] = system: Staph. aureus B4 (pen. resistant); assay: MIC against veterinary bacteria in vitro; conditions: Staphylococcus aureus, 18 h
Description: as §1

P. mirabilis 889 = assay: MIC against human bacteria in vitro; format: cell-based; conditions: Proteus mirabilis; P. mirabilis 889; 5% chocolated horse blood agar, 18 hours; read-out: MIC
[5] = system: Corynebacterium pyogenes CY1; assay: MIC against veterinary bacteria in vitro; conditions: CY1, 18 h
Description: as §1

[6] = system: M. bovigenitalium ATCC 14173; assay: MIC against mycoplasma in vitro; format: cell-based; conditions: 144 h
[7] = system: Strep. pyogenes R80/421-A; assay: MIC against human bacteria in vitro; format: cell-based; conditions: Streptococcus pyogenes; Strep. pyogenes R80/421-A; 5% chocolated horse blood agar, 18 hours; read-out: MIC
M. suipneumoniae NB12 = assay: MIC against mycoplasma in vitro; format: cell-based; conditions: Mesomycoplasma hyopneumoniae
[8] = system: M. suipneumoniae J2206/183^b; assay: MIC against mycoplasma in vitro; format: cell-based; conditions: Mesomycoplasma hyopneumoniae, 144 h
[9] = system: Ps. aeruginosa NCTC 10662; assay: MIC against human bacteria in vitro; format: cell-based; conditions: Pseudomonas aeruginosa, NCTC10662; Ps. aeruginosa NCTC 10662; 5% chocolated horse blood agar, 18 hours; read-out: MIC
[10] = system: Pasteurella multocida 1633; assay: MIC against human bacteria in vitro; format: cell-based; conditions: Pasteurella multocida 1633; 5% chocolated horse blood agar, 18 hours; read-out: MIC
E. coli ESS = assay: MIC against human bacteria in vitro; format: cell-based; conditions: Escherichia coli; E. coli ESS; 5% chocolated horse blood agar, 18 hours; read-out: MIC
M. suipneumoniae TAM 6N = assay: MIC against mycoplasma in vitro; format: cell-based; conditions: Mesomycoplasma hyopneumoniae, TAM6N, 144 h
M. hyorhinis ATCC 25021 = assay: MIC against mycoplasma in vitro; format: cell-based; conditions: Mesomycoplasma hyorhinis, ATCC25021, 144 h
Strep. uberis SPU1 = assay: MIC against veterinary bacteria in vitro; conditions: Streptococcus uberis, SPU1, 18 h
Description: as §1

[11] = system: M. hyosynoviae ATCC 25591; assay: MIC against mycoplasma in vitro; format: cell-based; conditions: 144 h
Strep. spp. 64/848-C = assay: MIC against human bacteria in vitro; format: cell-based; conditions: Strep. spp. 64/848-C; 5% chocolated horse blood agar, 18 hours; read-out: MIC
M. suipneumoniae Str. 11 = assay: MIC against mycoplasma in vitro; format: cell-based; conditions: Mesomycoplasma hyopneumoniae
Strep. agalactiae 2788-B = assay: MIC against human bacteria in vitro; format: cell-based; conditions: Streptococcus agalactiae; Strep. agalactiae 2788-B; 5% chocolated horse blood agar, 18 hours; read-out: MIC
[12] = system: M. suipneumoniae ATCC 25095; assay: MIC against mycoplasma in vitro; format: cell-based; conditions: Mesomycoplasma hyopneumoniae, ATCC25095, 144 h

Row | SMILES | MIC (Staph. aureus W2827) | MIC [1] | MIC [2] | MIC [3] | MIC (M. dispar NCTC 10125) | MIC (Sarcina lutea 8340) | MIC (Strep. faecalis I) | MIC (K. aerogenes A) | MIC (Staph. aureus Oxford) | MIC (Bacillus subtilis 6633) | MIC (Staph. aureus Russell) | MIC (Strep. agalactiae SPA1) | MIC (S. dublin S7) | MIC (Past. multocida PA1) | MIC [4] | MIC (P. mirabilis 889) | MIC [5] | MIC [6] | MIC [7] | MIC [9] | also measured
1 | C/C(=C\c1ncc(-c2ccc(S(=O)(=O)N(C)C)cc2)o1)C[C@@H]1OC[C@H](C[C@@H]2O[C@H]2[C@@H](C)[C@H](C)O)[C@@H](O)[C@H]1O [Example 24, 5-p-Dimethylaminosulphonylphenyl-2-(1-normon-2-yl)oxazole A] | 4 µg/mL (≈ 7.26 µM) | > 128 µg/mL | 2.5 µg/mL (≈ 4.54 µM) | 4 µg/mL (≈ 7.26 µM) | 0.1 µg/mL (≈ 0.182 µM) | > 128 µg/mL | > 128 µg/mL | > 64 µg/mL | 4 µg/mL (≈ 7.26 µM) | 4 µg/mL (≈ 7.26 µM) | 4 µg/mL (≈ 7.26 µM) | 1.25 µg/mL (≈ 2.27 µM) | > 80 µg/mL | 5 µg/mL (≈ 9.08 µM) | 1.25 µg/mL (≈ 2.27 µM) | > 64 µg/mL | 80 µg/mL (≈ 145 µM) | 0.1 µg/mL (≈ 0.182 µM) | 2 µg/mL (≈ 3.63 µM) | > 64 µg/mL | MIC (M. suipneumoniae MS 16; M. suipneumoniae MS 16, 6 days, 37° C., read-out: MIC): 0.1 µg/mL (≈ 0.182 µM); MIC (M. suipneumoniae JF 435): 0.25 µg/mL (≈ 0.454 µM); MIC (M. suipneumoniae NB12; 144 h, M. suipneumoniae NB12, Friis broth, 0.9% agarose, 6 days, 37° C., read-out: MIC): 0.1 µg/mL (≈ 0.182 µM); MIC [8]: 0.25 µg/mL (≈ 0.454 µM); MIC [10]: 16 µg/mL (≈ 29.1 µM); MIC (E. coli ESS): 4 µg/mL (≈ 7.26 µM); MIC (M. suipneumoniae TAM 6N): 0.25 µg/mL (≈ 0.454 µM); MIC (M. hyorhinis ATCC 25021): 0.1 µg/mL (≈ 0.182 µM); MIC (Strep. uberis SPU1): 0.312 µg/mL (≈ 0.567 µM); MIC [11]: 0.25 µg/mL (≈ 0.454 µM); MIC (Strep. spp. 64/848-C): 4 µg/mL (≈ 7.26 µM); MIC (M. suipneumoniae Str. 11; 144 h, M. suipneumoniae Str. 11, 6 days, 37° C., read-out: MIC): 0.1 µg/mL (≈ 0.182 µM); MIC (Strep. agalactiae 2788-B): 2 µg/mL (≈ 3.63 µM); MIC [12]: 0.1 µg/mL (≈ 0.182 µM)
2 | C/C(=C\c1ncc(-c2ccc(C#N)cc2)o1)C[C@@H]1OC[C@H](C[C@@H]2O[C@H]2[C@@H](C)[C@H](C)O)[C@@H](O)[C@H]1O [Example 21, 5-p-Cyanophenyl-2-(1-normon-2-yl) oxazole A] | 4 µg/mL (≈ 8.54 µM) | > 128 µg/mL | 10 µg/mL (≈ 21.3 µM) | 2 µg/mL (≈ 4.27 µM) | 0.1 µg/mL (≈ 0.213 µM) | > 128 µg/mL | > 128 µg/mL | > 128 µg/mL | 4 µg/mL (≈ 8.54 µM) | 1 µg/mL (≈ 2.13 µM) | 4 µg/mL (≈ 8.54 µM) | 1.25 µg/mL (≈ 2.67 µM) | > 80 µg/mL | 2.5 µg/mL (≈ 5.34 µM) | 1.25 µg/mL (≈ 2.67 µM) | > 128 µg/mL | > 80 µg/mL | 0.05 µg/mL (≈ 0.107 µM) | 1 µg/mL (≈ 2.13 µM) | > 128 µg/mL | MIC (M. suipneumoniae MS 16): 0.25 µg/mL (≈ 0.534 µM); MIC (M. suipneumoniae JF 435; M. suipneumoniae JF 435, 6 days, 37° C., read-out: MIC): 0.5 µg/mL (≈ 1.07 µM); MIC (M. suipneumoniae NB12; NB12, 144 h): 0.25 µg/mL (≈ 0.534 µM); MIC ([8]; M. suipneumoniae J2206/183^b, 6 days, 37° C., read-out: MIC): 0.5 µg/mL (≈ 1.07 µM); MIC [10]: 8 µg/mL (≈ 17.1 µM); MIC (E. coli ESS): 4 µg/mL (≈ 8.54 µM); MIC (M. suipneumoniae TAM 6N; M. suipneumoniae TAM 6N, 6 days, 37° C., read-out: MIC): 0.5 µg/mL (≈ 1.07 µM); MIC (M. hyorhinis ATCC 25021): 0.25 µg/mL (≈ 0.534 µM); MIC (Strep. uberis SPU1): 0.156 µg/mL (≈ 0.333 µM); MIC [11]: 0.1 µg/mL (≈ 0.213 µM); MIC (Strep. spp. 64/848-C): 4 µg/mL (≈ 8.54 µM); MIC (M. suipneumoniae Str. 11; STR.11, 144 h): 0.25 µg/mL (≈ 0.534 µM); MIC (Strep. agalactiae 2788-B): 4 µg/mL (≈ 8.54 µM); MIC [12]: 0.25 µg/mL (≈ 0.534 µM)

Source: patent US5041567A, “Antibacterial monic acid derivatives” (Beecham Group plc, priority 1982, dated 1991)
